Laboratory results from US3998971A, “Novel N-vinyloxyethyl-α-methyl-β-phenethylamines for depressing appetite” (Abbott Laboratories, priority 1975, dated 1976).
Entries after “also recorded” stand apart in the source; their conditions may differ. Where a name gives a salt, the structure may show the parent alone.

Tests used:
[1] = Acute Toxicity in Rats; type: in vivo, rat; conditions: rat, in vivo, po; P.O., rats; range in parentheses; read-out: Calculated LD50
[2] = tested on: Rats; assay: Acute Toxicity in Rats; type: in vivo, rat; conditions: for Mortality Ratio / toxicity relative to fenfluramine: rats; for toxicity compared with fenfluramine / toxicity relative to fenfluramine: HCl salts; for toxicity compared with fenfluramine: summary in words; for toxicity relative to fenfluramine: acute
[3] = tested on: Rats; assay: Reduction of food consumption in rats (average daily consumption of food, ED50); type: in vivo, rat; conditions: for % Change From Control Value in Average Daily Consumption of Food: one hour prior to feeding; for ED50: Rattus norvegicus, po, read-out: Calculated ED50 (dose necessary to reduce the intake of food by 50%); for potency compared with fenfluramine: HCl salts, summary in words; for Relative Potency: Summary of Table II, fenfluramine = 1
Protocol: Table II records the percent change in average daily consumption of food at various dosage levels upon administration of fenfluramine or the HCl salt of the compounds of formula B in which R is Cl or CF3 as well as the dose in milligrams per killograms necessary to reduce the intake of food by 50% (ED 50). […] In this study, drugs were administered one hour prior to feeding on the fifth day of regular food intake at doses of 5, 10 and 20 milligrams per killogram, with five rats being dosed at each level and fifteen rats serving as controls.
*ED50 : dose (mg/kg) necessary to reduce the intake of food by 50%.

[4] = tested on: rat serum lipids and glucose; assay: Effect of pre-treatment on rat serum lipids and glucose induced by olive oil gavage; type: in vivo, rat (male Sprague Dawley); conditions: for Serum Free Fatty Acids: 20 mg/kg i.p. 2 hours before olive oil (20 ml/kg gavage); for Serum Free Fatty Acids / Serum Concentration, Cholesterol / Serum Concentration, Glucose / Serum Concentration, Glycerol / Serum Concentration, Triglycerides: blood 3 hours after oil; for Serum Concentration, Cholesterol / Serum Concentration, Glucose / Serum Concentration, Glycerol / Serum Concentration, Triglycerides: 20 mg/kg i.p. 2 hours before olive oil; for inhibiting the increase in serum triglycerides induced by olive oil gavage: % of the oil treated group; for reduction of olive oil induced increase in serum cholesterol: HCl salts; for inhibiting the increase in serum triglycerides, compared with fenfluramine: olive oil gavage
Excerpt: The effect of pre-treatment with fenfluramine and the HCl salts of the compounds of formula B in which R is Cl or CF3 on rat serum lipids and glucose induced by olive oil gavage.
The present study was designed to compare the effects of fenfluramine, and the HCl salts of the compounds of formula B in which R=Cl and CF3 on serum glucose and lipid parameters in male rats after an olive oil meal.
Twenty-four male Sprague Dawley rats (200-250 g.) were divided into 8 groups as follows:
The animals were not fasted. Where indicated, the rats were pre-treated (intraperitoneally) with the appropriate drug for 2 hours prior to the administration of olive oil. Three hours after olive oil treatment, the animals were anesthetized with ether and blood samples obtained by cardiac puncture of the exposed heart. In each case, total treatment time was 5 hours.

[5] = tested on: Rats; assay: Sidman Avoidance Test in the Rat; type: in vivo, rat (male, Long Evans black-hooded); conditions: for effect on performance / behavior: 8 mg/kg; for effect on performance / behavior / effect on performance in Sidman Avoidance test / effect on response rate / effect on shock rate: in words; for effect on performance in Sidman Avoidance test / effect on response rate / effect on shock rate: overall
Protocol: The compound fenfluramine and the HCl salt compound of formula B in which R is Cl were examined in the Sidman Avoidance test.
Fenfluramine was run as a standard compound for comparative purposes in the study of appetite-suppressing drugs. The effects of drug-induced behavior are evaluated using the technique of Sidman Avoidance (Sidman, M., J. Comp. Physiol. Psychol. 46:253-261, 1953).
Male, Long Evans black-hooded rats (Simonsen Labs) weighing approximately 500 grams are run individually in Lehigh Valley Electronics rodent test chambers. Sessions (day/night) are 7.5 hours and 14 hours in length, respectively. The paradigm consists of two distinct temporal intervals for neither of which is the rat given any exteroceptive cues. The amount of time that elapses between shocks designates the shock-shock interval, is of a predetermined fixed length (10 seconds), and programmed by a recycling timer. When the rat responds by pressing a lever, the shock-shock interval is terminated and the response-shock interval is started. This interval is also of a predetermined fixed length (30 seconds) and programmed by a recycling timer. Both timers never operate simultaneously. The response-shock interval begins anew each time the rat responds on the lever. If the interval should elapse without the rat responding, a Shock (0.5 seconds, 10 mA) is given via the grid floor and the response-shock interval ends and the shock-shock interval begins.
Drug effects are evaluated as a precentage deviation of the rat's behavior from his baseline rate (responses/minute and shocks/minute). These effects are analyzed in 15 minute segments and an overall percentage deviation (response index and shock index) is determined.
based on an 8 mg/kg oral dose.

[6] = tested on: Mouse; assay: Symtomatology Tests in the Mouse; type: in vivo; conditions: for stimulant effects: low doses (10-50 mg/kg)
Excerpt: Symtomatology Tests in the Mouse

[7] = tested on: diabetics; conditions: cited from earlier work
[8] = tested on: plasma free fatty acids and triglycerides; conditions: cited from earlier work
[9] = Comparison with fenfluramine: stimulating properties; type: in vivo; conditions: HCl salts, in words
[10] = Solubility of the salt in water; conditions: HCl salt
[11] = 8 mg/kg oral, 7.5 hours session, 4 rats

Structure (SMILES)	LD50 [1] [mg/kg]	Mortality Ratio ([2]; 0.25 gm/kg P.O.)	% Change From Control Value in Average Daily Consumption of Food ([3]; 5 mg/kg P.O., rats) [%]	% Change From Control Value in Average Daily Consumption of Food ([3]; 10 mg/kg P.O., rats) [%]	% Change From Control Value in Average Daily Consumption of Food ([3]; 20 mg/kg P.O., rats) [%]	ED50 ([3]; P.O., rats) [mg/kg]	Serum Free Fatty Acids [4] [μEq/liter]	Serum Concentration, Cholesterol [4] [mg%]	Serum Concentration, Glucose [4] [mg%]	Serum Concentration, Glycerol [4]	Serum Concentration, Triglycerides [4] [mg%]	Shock Rate (percentage deviation from baseline rate) [5, 11] [%]	effect on performance / behavior [5]	effect on performance in Sidman Avoidance test [5]	effect on response rate [5]	effect on shock rate [5]	stimulant effects [6]	Mortality Ratio ([2]; 0.5 gm/kg P.O.)	Mortality Ratio ([2]; 1.0 gm/kg P.O.)	Mortality Ratio ([2]; 2.00 gm/kg P.O.)	also measured
CCNC(C)Cc1cccc(C(F)(F)F)c1 (centres unmarked) [Fenfluramine, reference compound]	225	4/6	-18.7	-39.3	-50.5	20	919±61	140±3	160±9	1.6±.10 mg%	61±1	-50	amphetamine-like effect on performance	all doses to be effective in producing significant results; also recorded: results indicative of amphetamine-like compounds	increase in response rate	decrease in shock rate	stimulant effects	–	–	–	Mortality Ratio ([2]; 0.1 gm/kg P.O.): 0/6; Mortality Ratio ([2]; 0.2 gm/kg P.O.): 2/6; Mortality Ratio ([2]; 0.3 gm/kg P.O.): 5/6; Calculated ED50 (dose necessary to reduce the intake of food by 50%) ([3]; P.O., rats): 20.7 mg/kg; effect on olive oil induced increase in serum cholesterol ([4]; in words): unaffected; Response Rate (percentage deviation from baseline rate) [5, 11]: +15%; sedative or stimulant action ([7]; Nursing 74): acts as a sedative rather than a stimulant; glucose tolerance in diabetics ([7]; Turtle et al.): appears to improve glucose tolerance in diabetics; undesirable side effects ([7]; diabetics, Turtle et al.): without producing undersirable side effects; post absorption glucose levels ([7]; given before meals, maturity onset and insulin-requiring diabetics, Turtle et al.): consistently reduced post absorption glucose levels; intestinal absorption of triglycerides ([8]; Bizzi et al.): inhibition of the intestinal absorption of triglycerides; plasma triglycerides ([8]; fed, but not fasted, animals, Garattini et al.): decrease in plasma triglycerides in fed, but not fasted, animals; concentration of plasma free fatty acids ([8]; rats, Bizzi et al.): rapid increase; rise in plasma triglycerides after olive oil gavage ([8]; several hours after olive oil gavage, prior treatment of rats): inhibited
C=COCCNC(C)Cc1cccc(C(F)(F)F)c1 (stereo not drawn) [HCl Salt, R=CF3, N-(2-vinyloxyethyl)-α-methyl-β-(3-trifluoromethylphenyl) Phenethylamine Hydrochloride]	1010	–	-22.9	-28.3	-76.0	17.4	870±61	122±10	159±7	2.1±.40 mg%	62±13	–	–	–	–	–	–	0/6	4/6	5/6	Mortality Ratio ([2]; 0.75 gm/kg P.O.): 1/6; Mortality Ratio ([2]; 0.85 gm/kg P.O.): 2/6; toxicity compared with fenfluramine [2]: considerably less toxic than fenfluramine; toxicity relative to fenfluramine [2]: approximately four times less toxic than fenfluramine; potency compared with fenfluramine [3]: considerably more potent; Relative Potency [3]: 1.2; potency relative to fenfluramine (times) ([3]; rats, P.O.): ~1.2 times; inhibiting the increase in serum triglycerides induced by olive oil gavage [4]: 50-55%; reduction of olive oil induced increase in serum cholesterol [4]: 14-19%; inhibiting the increase in serum triglycerides, compared with fenfluramine ([4]; in words): comparable to fenfluramine; stimulating properties [9]: minimum stimulating properties; solubility in water [10]: soluble in water
C=COCCNC(C)Cc1ccc(Cl)cc1 (stereo not drawn) [HCl Salt, R=Cl, N-(2-vinyloxyethyl)-α-methyl-β-(4-cholorophenyl) ethylamine hydrochloride]	950	0/6	-24.5	-53.5	-87.3	7.7	780±66	116±8	159±1	1.8±.30 mg%	62±7	-55	did not significantly affect behavior except for the parameter of shock rate which was reduced	did not affect performance significantly overall	response rate remaining stable	sharp decrease in shock rate	–	1/6	3/6	6/6	Mortality Ratio ([2]; 1.25 gm/kg P.O.): 4/6; Mortality Ratio ([2]; 1.50 gm/kg P.O.): 5/6; toxicity compared with fenfluramine [2]: considerably less toxic than fenfluramine; toxicity relative to fenfluramine [2]: approximately four times less toxic than fenfluramine; potency compared with fenfluramine [3]: considerably more potent; Relative Potency [3]: 2.5; potency relative to fenfluramine (times) ([3]; rats, P.O.): approximately 2.5 times; inhibiting the increase in serum triglycerides induced by olive oil gavage [4]: 50-55%; reduction of olive oil induced increase in serum cholesterol [4]: 14-19%; inhibiting the increase in serum triglycerides, compared with fenfluramine ([4]; in words): comparable to fenfluramine; stimulatory effect ([6]; high doses (300-1000 mg/kg)): only a weak stimulatory effect; stimulating properties [9]: minimum stimulating properties; solubility in water [10]: soluble in water
CN[C@@H](C)Cc1ccccc1 [Methamphetamine, methamphetamine]	–	–	–	–	–	–	–	–	–	–	–	–	–	–	–	–	stimulant effects	–	–	–	–
